{"source": "patent US20240148711A1", "about": "“COMPOSITION COMPRISING BETA BLOCKER AND CHOLINESTERASE INHIBITOR FOR TREATMENT OF NEURODEGENERATIVE DISEASE” (DR. NOAH BIOTECH INC., priority 2022, published 2024)", "key": {"microglia (BV2 cells)": {"test_system": "microglia (BV2 cells)", "experiment": "NO generation in LPS-treated microglia (anti-inflammatory effect)", "format": "cell-based", "settings": "BV2 cells treated with LPS and drug at the same time; compared to the LPS control group", "protocol": "Microglia (BV2 cells) were treated with LPS to cause an inflammatory response and, at the same time, treated with nebivolol alone, donepezil alone, or nebivolol+donepezil combination to measure the concentration of generated NO."}, "[1]": {"test_system": "Immortalized human neural progenitor cell line (ReNcell VM)", "experiment": "Differentiation of neural progenitor cells into motor neurons (HB9 immunostaining / CellTag)", "format": "cell-based", "settings": "compared to the control group", "protocol": "Immortalized human neural progenitor cell line (ReNcell VM) as a neural progenitor cell that may differentiate into neurons and glial cells was treated with nebivolol alone, donepezil alone, and nebivolol+donepezil combination. Thereafter, immunostaining was performed using an antibody capable of selectively binding to motor neurons (anti-HB9 antibody) and a CellTag probe that stains whole cells. Thereafter, the HB9 positive signal and the value of CellTag were analyzed to determine the number of motor neurons among the total cells, thereby measuring the degree of differentiation of neural precursor cells into motor neurons."}, "neuroblasts (SH-SY5Y)": {"test_system": "neuroblasts (SH-SY5Y)", "experiment": "ROS generation after H2O2 oxidative stress (DCF fluorescence)", "format": "cell-based", "settings": "compared to the control group"}, "SOD1G93A transgenic mice": {"test_system": "SOD1G93A transgenic mice", "experiment": "Rotarod latency test in ALS animal model", "format": "in vivo", "settings": "oral once daily from 70 days of age for 70 days, edaravone 15 mg/kg, NDC-011 nebivolol 5 mg/kg+donepezil 3 mg/kg, compared to the normal control group", "procedure": "SOD1G93A transgenic mice as ALS animal models were used to verify the in vivo efficacy of the nebivolol and donepezil complex. Edaravone (15 mg/kg) as a commercially available ALS treatment, or a nebivolol and donepezil complex (NDC-011, nebivolol 5 mg/kg+donepezil 3 mg/kg) according to the present invention was administered to mice from 70 days of age once daily. Each dose was orally administered for 70 days. The rotarod latency test was performed immediately before the start of drug administration to evaluate the motor ability of each animal, and, thereafter, the rotarod latency test was performed during the drug administration period at 7-day intervals to evaluate the motor ability of the ALS animals."}, "[2]": {"settings": "ReNcell VM, low concentration (0.01 μM) of nebivolol or donepezil alone"}}, "data": [{"smiles": "OC(CNCC(O)C1CCc2cc(F)ccc2O1)C1CCc2cc(F)ccc2O1", "note": "(centres unmarked) [nebivolol, Nebivolol]", "values": [{"measurement": "concentration of generated NO", "setting": "microglia (BV2 cells)", "result": "significant reduction in NO"}, {"measurement": "HB-9 expression (motor neuron marker)", "setting": "[1]; ReNcell VM under differentiation conditions", "result": "significant increase in HB-9 expression"}, {"measurement": "HB-9 expression (motor neuron marker)", "setting": "[1]; [2]", "result": "not observed"}, {"measurement": "amount of generated reactive oxygen species (ROS)", "setting": "neuroblasts (SH-SY5Y)", "result": "no significant decrease"}]}, {"smiles": "CC1=NN(c2ccccc2)C(=O)C1", "note": "[edaravone, Edaravone]", "values": [{"measurement": "age from which exercise capacity decreased (rotarod latency)", "setting": "SOD1G93A transgenic mice", "result": 84, "unit": "days"}]}, {"smiles": "COc1cc2c(cc1OC)C(=O)C(CC1CCN(Cc3ccccc3)CC1)C2", "note": "(centres unmarked) [donepezil, Donepezil]", "values": [{"measurement": "concentration of generated NO", "setting": "microglia (BV2 cells)", "result": "significant reduction in NO"}, {"measurement": "HB-9 expression (motor neuron marker)", "setting": "[1]; [2]", "result": "not observed"}, {"measurement": "amount of generated reactive oxygen species (ROS)", "setting": "neuroblasts (SH-SY5Y)", "result": "no significant decrease"}]}]}
